Data on one compound can be found in patent US20030099632A1, “Method for preparing a purified matrix metalloproteinase” (priority 2001, published 2003).

This assay concerns the target T1, MMP-13CD (Homo sapiens, UniProt P45452).
T1 construct: expression of MMP-13 catalytic domain (“MMP-13CD”) in E. coli typically produces a pro form of the enzyme; A-S- dipeptide left from the M-A-S- expression leader (mPro-MMP-13CD); removed by autolysis (N, cleaved yes); made in house
The experiment in a line: Autolysis of mPro-MMP-13CD / MMP-13CD after addition of a zinc ligand, followed by MALDI-MS. The format is biochemical. The note with it: added to modified pro form A-S-MMP-13CD. The method, then: A 1 mL aliquot of the solution obtained in Preparation 3 was thawed and purified by addition of 100 μL of hydroxamic acid to give a solution of purified MMP-13CD, and the solution was stored at 4° C.
Matrix-Assisted Laser Desorption/Ionization Mass Spectrometry (“MALDI”): MALDI mass spectra were acquired on a Bruker Daltonics, Inc (Billerika, Mass.) Reflex-III time-of-flight mass spectrometer operating in linear mode. The instrument has a 3.3-meter flight tube and an adjustable accelerating voltage up to 23 kV in Delayed Extraction mode. Radiation from a Laser Science, Inc. (Newton, Mass.) nitrogen laser (337 nm, 3-nanosecond pulse width) was used to desorb ions from the target. All linear delayed-extraction experiments were performed using an operating voltage of 23.0 kV, an extraction grid voltage of 20.0 kV, a focus voltage of 16.8 kV, and a lens voltage of 9.001 kV. Twenty-five to one hundred-fifty laser shots were averaged for each spectrum with a 5-point Savitsky-Golay smooth applied. […]
Samples of protein were then analyzed by MALDI-MS every day for 5 days. […] The flash-frozen material was stored, then thawed and immediately analyzed. […] The relative peak heights were calculated by dividing the a.i. value for MMP-13CD at m/z 18923 by the a.i. value for the particular impurity. […]

For `CC(=O)NO` [acetohydroxamic acid], the “effect on autolysis of MMP-13CD” value is reported as “stabilizes the resulting mature MMP-13CD itself against autolysis”.
